Results as given in PMC12304285 (British Journal of Cancer, 2025).
“Also recorded” adds a separate entry of the source.

Tests used:
[1] = tested on: PBMCs collected from patients; experiment: iMRM-MS of DDR proteins in PBMCs collected from patients on treatment; assay type: in vivo, human; details: doses up to 40 mg
Experimental: Prior to assessing clinical trial samples, PBMCs from healthy volunteers were treated ex vivo to determine biomarkers modulated by AZD7648. […] Samples were pooled and analysed by iMRM-MS. During the clinical trial, patient blood samples were collected during cycle 1 (day 1 and day 8), cycle 2 (day 1) and at the end of treatment and were analysed by iMRM-MS [20–23]. On-treatment tumour biopsies were optional in the trial protocol and none were collected, so tumour PD studies were not conducted.
Preparation of Clinical PBMCs and iMRM analysis
Blood from patients was drawn into 8 mL Vacutainer CPT tubes (BD) before treatment, 2-8h post dose at C1D1, C1D8, C2D1 and at discontinuation.
After inverting the tube 8 -10 times, it was centrifuged and the PBMC layer transferred into a new tube, washed once with ice cold PBS, centrifuged again to obtain a pellet which was then […]
PBMC pellets were lysed with 8M Urea supplemented with proteases and phosphatases inhibitors, sonicated, clarified by centrifugation and quantified with Micro -BCA assay (Thermo - […]
The samples were quality checked by SDS -PAGE followed by silver staining to evaluate the complexity of the obtained protein extract and assess the presence of most common blood contaminants (hemoglobulin and albumin). […]

[2] = Plasma and urine pharmacokinetics in patients; assay type: in vivo, human
Experimental: Urine PK samples were collected at Cycle 0, Day 1 and at Cycle 1, Day 8 at the following timepoints: pre-dose (Cycle 0, Day 1 only), 0 to 8 h post dose and 8 to 24 h post-dose. […] Maximum observed concentration (Cmax) and time to reach Cmax (tmax) were determined directly by inspection of the concentration-time profiles. Terminal half-life slope (t½λz) was calculated as ln2/terminal elimination rate constant (λz). Area under the plasma concentration time curve from zero to last measurable concentration (AUClast) was calculated using the linear up/log down trapezoidal rule. AUClast was extrapolated to infinity using λz to obtain overall exposure (AUCinf). The amount of drug excreted unchanged in the urine (e.g. Ae0-t, Aeτ) for any given dosing interval was determined by multiplying the concentration of drug determined in the urine sample by the volume of the sample collected in that period.

What does the source list for `Cc1cc2ncnn2cc1Nc1ncc2c(n1)n(C1CCOCC1)c(=O)n2C` [AZD7648, 7-Methyl-2-[(7-methyl[1,2,4]triazolo[1,5-a]pyridin-6-yl)amino]-9-(tetrahydro-2H-pyran-4-yl)-7,9-dihydro-8H-purin-8-one]?
activity on DDR protein markers in patient PBMCs [1]: did not show any activity; also recorded: not biologically active; exposure versus dose ([2]; 5 to 160 mg BID): increased in a broadly linear manner; fraction excreted unchanged in urine ([2]; human, in vivo): 5–10 % of the total administered dose; AUC(0-inf) ([2]; human, plasma, oral, 80 mg BID cohort, Cycle 0 Day 1 single dose, read-out: geoMean AUCinf): 25.2 µM·h; Cmax ([2]; human, plasma, oral, 80 mg BID cohort, Cycle 0 Day 1 single dose, read-out: geoMean Cmax): 2460 nM; Tmax ([2]; human, plasma, 5 to 160 mg, oral): 1 to 2 h; drug exposure achieved ([2]; one patient at the 80 mg dose level): > 1 µM
